pIC50: −log10 of the molar value.
Key:
Format in all cases: cell-based
human TLR7 = target: T1, human TLR7 (Homo sapiens, UniProt Q9NYK1); test: TLR7 inhibition reporter assay (HEK-Blue cells, SEAP reporter, gardiquimod stimulation); details: HEK-Blue cells overexpressing human TLR7, SEAP reporter, gardiquimod 7.5 μM
T1 construct: host or cells: HEK-Blue cells (HEK293-derived reporter line)
T1 sequence (Q9NYK1 27-1049): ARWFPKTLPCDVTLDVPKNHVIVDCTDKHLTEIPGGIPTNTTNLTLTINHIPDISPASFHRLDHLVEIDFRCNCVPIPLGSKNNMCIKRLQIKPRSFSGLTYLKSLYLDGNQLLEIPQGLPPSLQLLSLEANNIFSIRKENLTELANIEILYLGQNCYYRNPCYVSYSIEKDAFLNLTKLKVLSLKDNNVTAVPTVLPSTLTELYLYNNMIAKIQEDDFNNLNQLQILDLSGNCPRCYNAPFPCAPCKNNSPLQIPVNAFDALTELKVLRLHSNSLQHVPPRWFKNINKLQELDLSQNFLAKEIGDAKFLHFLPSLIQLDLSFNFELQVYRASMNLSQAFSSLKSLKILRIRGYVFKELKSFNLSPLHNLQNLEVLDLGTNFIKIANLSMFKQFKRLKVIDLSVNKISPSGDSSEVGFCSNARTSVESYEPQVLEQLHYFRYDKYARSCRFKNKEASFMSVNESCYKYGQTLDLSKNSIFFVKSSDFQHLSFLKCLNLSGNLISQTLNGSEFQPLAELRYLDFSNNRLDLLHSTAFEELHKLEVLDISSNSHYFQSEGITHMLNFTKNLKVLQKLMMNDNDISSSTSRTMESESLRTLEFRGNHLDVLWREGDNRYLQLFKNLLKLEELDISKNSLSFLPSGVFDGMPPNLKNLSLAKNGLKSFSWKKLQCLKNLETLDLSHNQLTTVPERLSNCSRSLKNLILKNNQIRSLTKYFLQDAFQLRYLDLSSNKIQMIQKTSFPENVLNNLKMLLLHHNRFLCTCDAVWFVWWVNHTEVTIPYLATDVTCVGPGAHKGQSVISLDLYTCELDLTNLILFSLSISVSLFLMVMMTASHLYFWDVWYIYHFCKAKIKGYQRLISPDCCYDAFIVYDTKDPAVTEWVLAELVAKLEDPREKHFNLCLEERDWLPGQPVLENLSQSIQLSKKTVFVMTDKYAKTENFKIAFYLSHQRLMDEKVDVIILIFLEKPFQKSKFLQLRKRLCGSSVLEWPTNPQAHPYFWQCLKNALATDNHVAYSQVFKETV
Method in brief: (§1)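 After 22 h at 37 °C, SEAP secretion was measured from human TLR7-, TLR8- or TLR9-expressing HEK-Blue reporter cells given compound (0.05 nM–50 μM) 30 min before agonist: 7.5 μM gardiquimod, 15.9 μM R848 or 5 nM ODN2006 respectively. Percent inhibition referenced to agonist-plus-DMSO and known-inhibitor wells.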

human TLR8 = target: T2, human TLR8 (Homo sapiens, UniProt Q9NR97); test: TLR8 inhibition reporter assay (HEK-Blue cells, SEAP reporter, R848 stimulation); details: HEK-Blue cells overexpressing human TLR8, SEAP reporter, R848 15.9 μM
T2 construct: host or cells: HEK-Blue cells (HEK293-derived reporter line)
T2 sequence (Q9NR97 27-1041): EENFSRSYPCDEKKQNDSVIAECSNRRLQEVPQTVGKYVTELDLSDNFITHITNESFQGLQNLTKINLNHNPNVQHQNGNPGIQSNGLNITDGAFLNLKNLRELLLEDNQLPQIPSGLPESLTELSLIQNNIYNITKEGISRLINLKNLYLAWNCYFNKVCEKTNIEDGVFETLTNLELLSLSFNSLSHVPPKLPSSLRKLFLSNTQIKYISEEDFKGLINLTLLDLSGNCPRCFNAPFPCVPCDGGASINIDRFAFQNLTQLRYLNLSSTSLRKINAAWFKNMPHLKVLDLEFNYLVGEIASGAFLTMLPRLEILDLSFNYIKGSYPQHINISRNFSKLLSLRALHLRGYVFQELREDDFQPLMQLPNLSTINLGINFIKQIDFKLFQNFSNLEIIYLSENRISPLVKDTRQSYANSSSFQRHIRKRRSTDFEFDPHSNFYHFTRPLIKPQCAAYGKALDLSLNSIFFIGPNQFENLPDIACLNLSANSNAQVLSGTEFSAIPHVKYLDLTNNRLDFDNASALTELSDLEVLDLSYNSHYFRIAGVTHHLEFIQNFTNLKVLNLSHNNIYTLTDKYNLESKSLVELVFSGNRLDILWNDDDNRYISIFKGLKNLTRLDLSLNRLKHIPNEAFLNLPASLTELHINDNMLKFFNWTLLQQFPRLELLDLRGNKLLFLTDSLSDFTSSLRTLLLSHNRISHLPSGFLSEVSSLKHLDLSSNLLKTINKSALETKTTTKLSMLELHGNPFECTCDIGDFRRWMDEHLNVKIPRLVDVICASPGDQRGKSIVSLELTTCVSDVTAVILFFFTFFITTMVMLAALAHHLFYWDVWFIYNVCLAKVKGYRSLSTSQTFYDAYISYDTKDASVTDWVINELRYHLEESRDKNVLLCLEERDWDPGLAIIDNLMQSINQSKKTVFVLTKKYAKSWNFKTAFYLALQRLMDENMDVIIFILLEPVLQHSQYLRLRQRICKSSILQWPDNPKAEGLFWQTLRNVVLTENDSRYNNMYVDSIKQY
Method in brief: as §1

human TLR9 = target: T3, human TLR9 (Homo sapiens, UniProt Q9NR96); test: TLR9 inhibition reporter assay (HEK-Blue cells, SEAP reporter, ODN2006 stimulation); details: HEK-Blue cells overexpressing human TLR9, SEAP reporter, ODN2006 5 nM
T3 construct: host or cells: HEK-Blue cells (HEK293-derived reporter line)
T3 sequence (Q9NR96 26-1032): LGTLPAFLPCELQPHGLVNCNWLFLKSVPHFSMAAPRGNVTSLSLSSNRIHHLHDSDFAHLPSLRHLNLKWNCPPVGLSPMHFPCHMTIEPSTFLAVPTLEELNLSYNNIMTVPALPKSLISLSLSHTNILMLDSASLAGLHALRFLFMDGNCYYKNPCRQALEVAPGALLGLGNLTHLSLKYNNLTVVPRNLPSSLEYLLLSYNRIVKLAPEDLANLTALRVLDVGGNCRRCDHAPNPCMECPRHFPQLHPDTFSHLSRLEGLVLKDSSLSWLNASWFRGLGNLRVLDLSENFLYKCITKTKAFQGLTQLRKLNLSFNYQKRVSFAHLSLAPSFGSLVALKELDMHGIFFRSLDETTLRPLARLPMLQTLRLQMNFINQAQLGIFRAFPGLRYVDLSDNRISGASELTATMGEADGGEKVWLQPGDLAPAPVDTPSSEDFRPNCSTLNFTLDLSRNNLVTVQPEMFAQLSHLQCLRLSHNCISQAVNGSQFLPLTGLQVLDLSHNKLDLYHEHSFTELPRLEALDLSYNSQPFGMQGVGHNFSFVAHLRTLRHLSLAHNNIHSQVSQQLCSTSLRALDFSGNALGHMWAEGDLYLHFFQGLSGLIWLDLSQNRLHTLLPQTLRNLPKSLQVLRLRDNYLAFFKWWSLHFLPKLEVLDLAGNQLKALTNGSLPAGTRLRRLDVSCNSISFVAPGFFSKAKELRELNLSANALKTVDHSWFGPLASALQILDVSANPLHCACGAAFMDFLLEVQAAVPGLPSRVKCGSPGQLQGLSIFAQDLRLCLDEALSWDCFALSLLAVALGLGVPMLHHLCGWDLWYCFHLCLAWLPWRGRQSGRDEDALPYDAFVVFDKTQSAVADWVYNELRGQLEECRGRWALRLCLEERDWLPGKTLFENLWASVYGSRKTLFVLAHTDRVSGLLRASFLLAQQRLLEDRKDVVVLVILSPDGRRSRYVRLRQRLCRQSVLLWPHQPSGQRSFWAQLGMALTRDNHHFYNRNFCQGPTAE
Method in brief: as §1

Row | Compound | pIC50 (human TLR7) | pIC50 (human TLR8) | pIC50 (human TLR9)
1 | CC(C)c1c(-c2c[nH]c3ccncc23)[nH]c2ccc(C3CCNCC3)cc12 [Example 14, 3-(3-isopropyl-5-(piperidin-4-yl)-1H-indol-2-yl)-1H-pyrrolo[3,2-c]pyridine] | < 5.51 | < 5.51 | 6.00 to 7.00
2 | Cc1cc2cc(-c3[nH]c4ccc(C5CCNCC5)cc4c3C(C)C)cc(CC(C)C)n2n1 [Example 144, 7-isobutyl-5-(3-isopropyl-5-(piperidin-4-yl)-1H-indol-2-yl)-2-methylpyrazolo[1,5-a]pyridine] | < 5.51 | < 5.51 | 4.30 to 6.00
3 | Cc1nc2c(-c3[nH]c4ccc(C5CCN(CC(=O)N(C)C)CC5)cc4c3C(C)C)ccc(C)n2n1 [Example 384, 2-(4-(2-(2,5-dimethyl-[1,2,4]triazolo[1,5-a]pyridin-8-yl)-3-isopropyl-1H-indol-5-yl)piperidin-1-yl)-N,N-dimethylacetamide] | 4.30 to 6.00 | 6.00 to 7.00 | 4.30 to 6.00
4 | COc1c(C)c(-c2[nH]c3ccc(C4CCNCC4)cc3c2C(C)C)nn2ncnc12 [Example 33, 6-(3-isopropyl-5-(piperidin-4-yl)-1H-indol-2-yl)-8-methoxy-7-methyl-[1,2,4]triazolo[1,5-b]pyridazine] | > 7.00 | > 7.00 | 6.00 to 7.00
5 | CCc1c(-c2cnc3cccnn23)[nH]c2ccc(C3CCNCC3)cc12 [Example 187, 3-(3-ethyl-5-(piperidin-4-yl)-1H-indol-2-yl)imidazo[1,2-b]pyridazine] | 4.30 to 6.00 | 4.30 to 6.00 | 4.30 to 6.00
6 | CC(C)c1c(-c2ccc3nccn3n2)[nH]c2ccc(C3CCNCC3)cc12 [Example 27, 6-(3-isopropyl-5-(piperidin-4-yl)-1H-indol-2-yl)imidazo[1,2-b]pyridazine] | > 7.00 | > 7.00 | 4.30 to 6.00
7 | Cc1cc2nnnn2cc1-c1[nH]c2ccc(C3CCN(CC(N)=O)CC3)cc2c1C(C)C [Example 315, 2-(4-(3-isopropyl-2-(7-methyltetrazolo[1,5-a]pyridin-6-yl)-1H-indol-5-yl)piperidin-1-yl)acetamide] | > 7.00 | > 7.00 | 4.30 to 6.00
8 | CC(C)c1c(-c2cc(C(F)(F)F)c3nccn3c2)[nH]c2ccc(C3CCN(CC(=O)N(C)C)CC3)cc12 [Example 372, 2-(4-(3-isopropyl-2-(8-(trifluoromethyl)imidazo[1,2-a]pyridin-6-yl)-1H-indol-5-yl)piperidin-1-yl)-N,N-dimethylacetamide] | > 7.00 | > 7.00 | 4.30 to 6.00
9 | CNCC(=O)N1CCC(c2ccc3[nH]c(-c4cc(C(F)(F)F)c5nccn5c4)c(C(C)C)c3c2)CC1 [Example 508, 1-(4-(3-isopropyl-2-(8-(trifluoromethyl)imidazo[1,2-a]pyridin-6-yl)-1H-indol-5-yl)piperidin-1-yl)-2-(methylamino)ethan-1-one] | > 7.00 | 6.00 to 7.00 | 6.00 to 7.00
10 | Cc1cc(-c2[nH]c3ccc(C4CCN(CC(=O)N(C)C)CC4)cc3c2C(C)C)cc2cn(C)nc12 [Example 379, 2-(4-(2-(2,7-dimethyl-2H-indazol-5-yl)-3-isopropyl-1H-indol-5-yl)piperidin-1-yl)-N,N-dimethylacetamide] | > 7.00 | > 7.00 | 4.30 to 6.00

Next, values leading:

Row | pIC50 (human TLR7) | pIC50 (human TLR8) | pIC50 (human TLR9) | Compound
11 | > 7.00 | > 7.00 | 4.30 to 6.00 | CC(C)c1c(-c2ccnc3[nH]ncc23)[nH]c2ccc(C3CCN(Cc4csc(N)n4)CC3)cc12 [Example 925, 4-((4-(3-isopropyl-2-(1H-pyrazolo[3,4-b]pyridin-4-yl)-1H-indol-5-yl)piperidin-1-yl)methyl)thiazol-2-amine]
12 | > 7.00 | > 7.00 | 4.30 to 6.00 | COc1cc(-c2[nH]c3ccc(C4CCN(C5COC5)CC4)cc3c2C(C)C)nn2ncnc12 [Example 732, 6-(3-isopropyl-5-(1-(oxetan-3-yl)piperidin-4-yl)-1H-indol-2-yl)-8-methoxy-[1,2,4]triazolo[1,5-b]pyridazine]
13 | > 7.00 | > 7.00 | 4.30 to 6.00 | CC(C)c1c(-c2cn(C)c3ncncc23)[nH]c2ccc(C3CCN(C4CCOCC4)CC3)cc12 [Example 688, 5-(3-isopropyl-5-(1-(tetrahydro-2H-pyran-4-yl)piperidin-4-yl)-1H-indol-2-yl)-7-methyl-7H-pyrrolo[2,3-d]pyrimidine]
14 | 4.30 to 6.00 | 4.30 to 6.00 | > 7.00 | Cc1c(-c2nccc3[nH]cnc23)[nH]c2ccc(C3CCN(C4CCN(C(C)C)CC4)CC3)cc12 [Example 805, 4-(5-(1′-isopropyl-[1,4′-bipiperidin]-4-yl)-3-methyl-1H-indol-2-yl)-1H-imidazo[4,5-c]pyridine]
15 | < 4.30 | < 5.51 | 4.30 to 6.00 | CNCCN1CCC(c2ccc3[nH]c(-c4ccc5c(c4)OCCN5C)c(C)c3c2)CC1 [Example 673, N-methyl-2-(4-(3-methyl-2-(4-methyl-3,4-dihydro-2H-benzo[b][1,4]oxazin-7-yl)-1H-indol-5-yl)piperidin-1-yl)ethan-1-amine]

— patent US11739098B2 (BRISTOL-MYERS SQUIBB COMPANY, priority 2017, dated 2023)
